This is an account of results in patent US12168006B2, “Cancer therapy by degrading dual MEK signaling” (The Board of Trustees of the University of Illinois, priority 2017, dated 2024).

“Also recorded” adds a separate entry of the source.

One data set has as its system Lyn. Conditions: Ba/F3 cells; cited from earlier work.
Another data set concerns AKT. Conditions: cited from earlier work.
Another data set concerns H3122 cells. Description: Long term experiments with EML4-ALK cell line. Conditions: for cytotoxic effect / cell proliferation: 8 days, PAC-1 2 μM, trametinib 5 nM.
The next data set relates to caspase-3/-7. In words: Caspase-3/-7 activity assay. In kind it is cell-based, human.
Another data set has as its target MEK2 (MAP2K2) (Homo sapiens, UniProt P36507). Conditions: at 1 μM; cited from earlier work.
The next data set relates to CaMKII. Conditions: cited from earlier work.
For the next data set, the system named is CK2. Conditions: cited from earlier work.
A further data set has as its target PKCδ (Homo sapiens, UniProt Q05655). Conditions: cited from earlier work.
In another data set the target is Fyn (Homo sapiens, UniProt P06241). Conditions: at 1 μM; cited from earlier work.
The target of a further data set is ERK1/2 (MAPK1) (Homo sapiens, UniProt P28482). Conditions: cited from earlier work.
The target of the next data set is CDK1 (Homo sapiens, UniProt P06493). Conditions: at 1 μM; cited from earlier work.
The next data set deals with DYRK1A (Homo sapiens, UniProt Q13627). Conditions: at 1 μM; cited from earlier work.
The next data set has as its target PKCζ (Homo sapiens, UniProt Q05513). Conditions: cited from earlier work.
The test system of a further data set is PKA. Conditions: cited from earlier work.
A further data set deals with H1975 cells. Description: Long term experiments with EGFR^T790M cell lines. The protocol: (§1) In 12 well plates, PC-9 GR or H1975 cells were seeded at 2,000 cells per well and allowed to adhere overnight.
For the next data set, the system named is PC-9 GR cells. In words: Long term experiments with EGFR^T790M cell lines. The protocol:
as §1

Data set [1] deals with BRAF^V600E melanoma, EGFR^T790M, and EML4-ALK NSCLCs. In words: Delay of acquired resistance, summary of long term experiments. Format: cell-based, human. Conditions: added to the kinase inhibitor. The method, then: (§2) This assay was performed as described previously. Briefly, 100-250 cells were seeded and allowed to adhere overnight. […] Media was refreshed with new compounds added every 3-4 days.

The next data set has as its system MEK1 and MEK2 kinases. In words: Immunoblotting of procaspase-3, MEK1 and MEK2 levels. Conditions: Q-VD-OPh 25 μM added concurrently; 48 hours; A375, PC-9 GR, H3122. In kind it is cell-based, human. (In general: In western blotting, separated proteins are transferred to a membrane and probed.)
For data set [2], the system named is A375, PC-9 GR, H3122, K-562 cells. Description: Q-VD-OPh protection by flow cytometry. Format: cell-based, human. Conditions: Q-VD-OPh 25 μM added concurrently; 48 hours. The method, then: A375 (BRAF^V600E) cells were seeded with 70,000 cells/well in 12-well plates and allowed to adhere overnight. The next day, indicated concentrations of PAC-1, vemurafenib, trametinib, and/or Q-VD-OPh were added and cells were incubated at 37° C. for 48 hours. […] The next day, they were incubated with PAC-1, ceritinib, and/or Q-VD-OPh for 48 hours. K-562 cells were seeded with 35,000 cells/well in 12-well plates.
A general note: Flow cytometry measures light scatter and fluorescence of single cells or particles in a stream.

The test system of a further data set is A375 cells. In words: Long term experiments in BRAF^V600E cell lines. Conditions: continuous treatment. Format: cell-based, human. The protocol:
as §2

The test system of the next data set is PC-9 GR and H1975 cells. Description: Cell viability assay (SRB). Format: cell-based, human. Conditions: 5-day incubation.
Where [3] appears, read: H1975 NSCLC cells, PAC-1 5 μM, up to 48 h.
Where [4] appears, read: PC-9 GR NSCLC cells, PAC-1 5 μM, up to 48 h.

PKCζ, sequence (Q05513 whole entry): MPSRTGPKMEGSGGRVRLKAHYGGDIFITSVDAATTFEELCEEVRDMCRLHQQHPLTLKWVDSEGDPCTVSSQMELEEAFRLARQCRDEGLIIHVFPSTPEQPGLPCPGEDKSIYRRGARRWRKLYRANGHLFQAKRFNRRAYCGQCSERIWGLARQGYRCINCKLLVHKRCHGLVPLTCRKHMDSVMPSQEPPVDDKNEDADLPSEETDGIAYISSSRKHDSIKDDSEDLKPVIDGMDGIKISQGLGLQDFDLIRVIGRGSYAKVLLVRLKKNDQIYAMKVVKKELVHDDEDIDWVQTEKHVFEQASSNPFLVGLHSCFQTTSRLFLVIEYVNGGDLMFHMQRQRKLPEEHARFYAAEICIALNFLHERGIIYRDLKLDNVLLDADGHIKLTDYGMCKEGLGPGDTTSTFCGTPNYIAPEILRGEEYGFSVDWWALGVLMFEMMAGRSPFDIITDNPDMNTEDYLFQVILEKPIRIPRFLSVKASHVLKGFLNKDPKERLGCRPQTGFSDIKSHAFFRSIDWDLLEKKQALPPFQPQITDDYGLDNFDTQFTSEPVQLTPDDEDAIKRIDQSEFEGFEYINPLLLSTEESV
CDK1, sequence (P06493 whole entry, species assumed): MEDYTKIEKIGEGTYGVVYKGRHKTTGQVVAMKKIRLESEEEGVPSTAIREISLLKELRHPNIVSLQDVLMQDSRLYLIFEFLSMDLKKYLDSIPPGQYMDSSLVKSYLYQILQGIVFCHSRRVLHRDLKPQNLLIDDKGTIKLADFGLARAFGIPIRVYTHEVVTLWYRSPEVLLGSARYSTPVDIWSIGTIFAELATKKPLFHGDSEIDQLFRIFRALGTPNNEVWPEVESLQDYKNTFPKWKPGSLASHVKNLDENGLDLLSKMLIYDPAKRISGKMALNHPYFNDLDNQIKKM
CDK1, sequence (P14635 whole entry partner, species assumed): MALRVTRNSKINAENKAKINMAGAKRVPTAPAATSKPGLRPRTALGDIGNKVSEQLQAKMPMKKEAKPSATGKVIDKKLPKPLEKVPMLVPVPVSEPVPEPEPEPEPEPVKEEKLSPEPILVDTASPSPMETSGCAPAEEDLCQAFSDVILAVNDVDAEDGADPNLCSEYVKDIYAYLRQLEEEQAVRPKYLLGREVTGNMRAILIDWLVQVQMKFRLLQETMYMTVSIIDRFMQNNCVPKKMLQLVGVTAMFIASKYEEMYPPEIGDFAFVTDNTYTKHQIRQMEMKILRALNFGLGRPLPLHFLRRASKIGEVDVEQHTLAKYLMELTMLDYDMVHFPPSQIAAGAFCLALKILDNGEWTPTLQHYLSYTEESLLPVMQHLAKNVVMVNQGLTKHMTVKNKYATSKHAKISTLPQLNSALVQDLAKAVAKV
PKCδ, sequence (Q05655 whole entry): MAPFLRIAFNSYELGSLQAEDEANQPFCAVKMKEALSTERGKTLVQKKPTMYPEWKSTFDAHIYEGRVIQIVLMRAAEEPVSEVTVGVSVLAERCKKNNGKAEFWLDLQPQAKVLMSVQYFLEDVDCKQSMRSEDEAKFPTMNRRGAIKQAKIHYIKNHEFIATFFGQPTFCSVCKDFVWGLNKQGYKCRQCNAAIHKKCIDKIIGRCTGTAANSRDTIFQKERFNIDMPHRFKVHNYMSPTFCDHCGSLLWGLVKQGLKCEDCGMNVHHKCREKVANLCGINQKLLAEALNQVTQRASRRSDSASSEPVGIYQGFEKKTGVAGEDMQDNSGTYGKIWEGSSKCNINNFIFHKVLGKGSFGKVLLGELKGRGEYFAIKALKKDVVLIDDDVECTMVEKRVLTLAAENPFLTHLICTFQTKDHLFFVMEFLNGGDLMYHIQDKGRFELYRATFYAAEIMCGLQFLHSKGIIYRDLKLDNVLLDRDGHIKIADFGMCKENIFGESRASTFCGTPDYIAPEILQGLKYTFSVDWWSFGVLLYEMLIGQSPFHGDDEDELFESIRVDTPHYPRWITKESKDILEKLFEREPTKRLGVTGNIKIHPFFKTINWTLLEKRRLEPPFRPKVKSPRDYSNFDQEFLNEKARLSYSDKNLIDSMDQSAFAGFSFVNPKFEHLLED
MEK2 (MAP2K2), sequence (P36507 whole entry, species assumed): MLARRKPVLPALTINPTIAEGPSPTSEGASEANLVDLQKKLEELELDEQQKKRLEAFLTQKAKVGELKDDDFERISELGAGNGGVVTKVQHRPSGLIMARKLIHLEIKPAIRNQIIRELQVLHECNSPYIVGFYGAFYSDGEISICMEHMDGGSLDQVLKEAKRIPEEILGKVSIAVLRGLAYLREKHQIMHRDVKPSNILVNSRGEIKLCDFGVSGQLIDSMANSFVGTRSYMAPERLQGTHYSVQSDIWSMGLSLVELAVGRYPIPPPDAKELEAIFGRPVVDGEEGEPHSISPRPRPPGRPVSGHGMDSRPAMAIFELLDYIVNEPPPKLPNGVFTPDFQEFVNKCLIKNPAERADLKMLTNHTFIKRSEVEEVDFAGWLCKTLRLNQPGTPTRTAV
Fyn, sequence (P06241 whole entry, species assumed): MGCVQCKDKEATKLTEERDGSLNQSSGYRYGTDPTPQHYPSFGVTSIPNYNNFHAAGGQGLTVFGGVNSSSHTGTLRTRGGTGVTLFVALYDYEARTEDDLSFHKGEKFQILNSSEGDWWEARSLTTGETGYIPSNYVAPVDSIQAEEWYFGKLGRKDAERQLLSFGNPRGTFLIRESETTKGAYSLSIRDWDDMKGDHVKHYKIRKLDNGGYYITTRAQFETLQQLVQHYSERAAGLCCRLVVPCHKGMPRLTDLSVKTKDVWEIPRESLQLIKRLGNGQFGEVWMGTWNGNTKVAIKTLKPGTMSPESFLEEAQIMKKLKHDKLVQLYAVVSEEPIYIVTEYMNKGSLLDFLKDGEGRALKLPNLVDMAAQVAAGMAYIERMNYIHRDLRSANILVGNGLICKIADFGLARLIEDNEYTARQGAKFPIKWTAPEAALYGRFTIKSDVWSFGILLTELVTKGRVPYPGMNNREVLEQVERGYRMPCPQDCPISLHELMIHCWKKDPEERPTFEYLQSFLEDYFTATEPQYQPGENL
ERK1/2 (MAPK1), sequence (P28482 2-360 limits assumed): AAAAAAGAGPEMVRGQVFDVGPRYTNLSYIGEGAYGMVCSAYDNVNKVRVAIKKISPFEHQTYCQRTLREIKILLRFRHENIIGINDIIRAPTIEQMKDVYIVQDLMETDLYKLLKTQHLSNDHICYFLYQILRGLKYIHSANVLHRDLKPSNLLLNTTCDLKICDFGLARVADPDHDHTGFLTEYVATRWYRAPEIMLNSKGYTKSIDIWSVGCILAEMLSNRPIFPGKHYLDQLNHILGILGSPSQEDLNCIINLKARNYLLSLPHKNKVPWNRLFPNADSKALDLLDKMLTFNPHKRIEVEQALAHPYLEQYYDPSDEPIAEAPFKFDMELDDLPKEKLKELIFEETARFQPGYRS
Procedure for H3122 cells: H3122 cells were seeded at 10,000 cells per well in 6 well plates and allowed to adhere overnight. […] Media was refreshed every 3-4 days with new compounds. At the end of the incubation period, cells were fixed 10% trichloroacetic acid, stained with SRB, imaged using GelDoc XR, and absorbance at 510 nm read using SpectraMax M3 (Molecular Devices) plate reader.
Procedure for MEK1 and MEK2 kinases: Cells were lysed using RIPA buffer containing phosphatase (BioVision) and protease inhibitor cocktail (Calbiochem). Protein concentration was determined using the BCA assay (Pierce). Cell lysates containing 8-20 μg of protein were loaded into each lane of 4-20% gradient gels (BioRad) and ran for SDS-PAGE. Proteins were transferred onto PDVF membrane (Millipore) for Western blot analysis. Blots were blocked with BSA for one hour followed by incubation with primary antibody overnight (manufacturer's recommended dilutions). Secondary antibody was incubated for one hour. Blots were then imaged with a ChemiDoc Touch after incubation with SuperSignal West Pico Solution following manufacturer's protocols.
Procedure for PC-9 GR and H1975 cells: Final concentration of DMSO in each well is 0.5%. At the end of 5 days, viability was assessed by the sulforhodamine B (SRB) assay sulforhodamine B (SRB) assay. Briefly, 100 μL of 10% trichloroacetic acid (TCA) was added in each well and the plate was incubated for at least 1 hour at 4° C. After the 4° C. incubation, the plate was washed with water and allowed to dry for at least 1 hour at room temperature. 100 μL of SRB dye (1% w/v) was added to each well and incubated for 30 minutes at room temperature. At the end of the 30 minutes incubation, the plate was washed with 1% acetic acid solution and allowed to dry at room temperature. Finally, 200 μL of Tris solution (pH>10) was added to each well to dissolve the SRB dye. The absorbance of each well was read with a SpectraMax M3 plate reader (Molecular Devices) at 510 nm.
Procedure for caspase-3/-7: H3122 cells were seeded at 4,000 cells per well and allowed to adhere overnight. […] 10 μM raptinal was used as the positive control throughout the experiment. […] Plates were pre-incubated at 37° C. for 30 minutes in the SpectraMax M3 (Molecular Devices) plate reader and then read for 30 minutes at 3-minute intervals. Slopes for each well were calculated and averaged over six technical replicates. Activity is normalized to the maximal and minimal activity observed within the assay.

One may read the IC50 as the concentration at which inhibition is half-maximal. Consider `Cc1cc(Nc2ncc(Cl)c(Nc3ccccc3S(=O)(=O)C(C)C)n2)c(OC(C)C)cc1C1CCNCC1` [Ceritinib], for which the IC50 was 2310 nM in the data set with Lyn and over 10000 nM with AKT. For the same compound, in the data set on H3122 cells, the “cytotoxic effect / cell proliferation” value is “effective in inhibiting cell proliferation”. Further, the resistant clones result in the data set on H3122 cells (20 days of treatment) is given as “Resistant clones were visible”; with H3122 cells (32 days of treatment), “dramatic increase”.

Turning to `Cc1ccc(NC(=O)c2ccc(CN3CCN(C)CC3)cc2)cc1Nc1nccc(-c2cccnc2)n1` [Imatinib], the caspase-3 activity entry in the data set on caspase-3/-7 (K-562 cells, PAC-1 7.5 μM) is “negligible single-agent activity”. Further, the “% Inhibition of MEK2 (MAP2K2)” value on MEK2 (MAP2K2) is 5.9% at 1 μM. Moreover, the “Inhibition of CaMKII (in words)” value in the data set on CaMKII is “Not observed”. In addition, in the data set on CK2, the “Inhibition of CK2 (in words)” value is on record as “Not observed”. Moreover, the “Inhibition of PKCδ (in words)” value on PKCδ is recorded as “Not observed”. Further, at Fyn, the “% Inhibition of Fyn” value was 29.6% at 1 μM. Moreover, the “Inhibition of ERK1/2 (MAPK1) (in words)” value at ERK1/2 (MAPK1) is on record as “Not observed”. Besides, the “% Inhibition of CDK1” value on CDK1 was 1.8% at 1 μM. The “% Inhibition of DYRK1A” value at DYRK1A was 2.2% at 1 μM. Moreover, the “Inhibition of PKCζ (in words)” value at PKCζ is recorded as “Not observed”. For the same compound, the “Inhibition of PKA (in words)” value with PKA is on record as “Not observed”.

With `C=CC(=O)Nc1cc(Nc2nccc(-c3cn(C)c4ccccc34)n2)c(OC)cc1N(C)CCN(C)C` [Osimertinib], the caspase-3 activity result in the data set with caspase-3/-7 (setting [3]) and with caspase-3/-7 (setting [4]) was “Negligible increases” each time. The “cytotoxic effect / cell proliferation” value is recorded as “very effective” with H1975 cells and “very effective; also recorded: effective in inhibiting cell proliferation” with PC-9 GR cells (8 days, PAC-1 2 μM, osimertinib 30 nM, trametinib 5 nM). Also, the resistant clones result in the data set with H1975 cells is given as “clearly visible”; in the data set on PC-9 GR cells it was “clearly visible; also recorded: resistant clones were visible; also recorded: dramatic increase”.

Take `C=CCc1cccc(/C=N/NC(=O)CN2CCN(Cc3ccccc3)CC2)c1O` [PAC-1]: the caspase-3 activity result was “Negligible increases” in the data set with caspase-3/-7 (setting [3]); “negligible single-agent activity” in the data set on caspase-3/-7 (K-562 cells, PAC-1 7.5 μM); “Negligible increases” in the data set with caspase-3/-7 (setting [4]). Also, the “concentration effective in delaying acquired resistance to vemurafenib, osimertinib, and ceritinib” value in data set [1] was in the range of 1 to 2 µM.

In the case of `CC(C)[C@H](NC(=O)c1ccc2ccccc2n1)C(=O)N[C@@H](CC(=O)O)C(=O)COc1c(F)cccc1F` [Q-VD-OPh], the “MEK1/2 cleavage in cells treated with PAC-1/drug combinations” value in the data set with MEK1 and MEK2 kinases is reported as “attenuated”. Further, the “apoptotic cell death in cells treated with PAC-1/drug combinations” value in [2] is recorded as “protection”.

Turning to `CCCS(=O)(=O)Nc1ccc(F)c(C(=O)c2c[nH]c3ncc(-c4ccc(Cl)cc4)cc23)c1F` [Vemurafenib], in the data set on A375 cells, the “time at which resistant colonies were first seen” value was found to be 20 days.

`COc1cc2ncnc(Nc3ccc(F)c(Cl)c3)c2cc1OCCCN1CCOCC1` [gefitinib]: in the data set with PC-9 GR and H1975 cells, the “activity in PC-9 GR and H1975 cells (FIG. 7A)” value is “inactive”.

In the case of `CC(=O)Nc1cccc(-n2c(=O)n(C3CC3)c(=O)c3c(Nc4ccc(I)cc4F)n(C)c(=O)c(C)c32)c1` [trametinib], the “cytotoxic effect / cell proliferation” value in the data set on H3122 cells is on record as “minimal cytotoxic effect”.
